Measurements taken from patent US8329756B2, “Drug for treatment of colon cancer” (Oncophor, LLC, priority 2009, dated 2012).

System: DLD-1 cells
Experiment: in vitro test with cancerous DLD1 colon cells treated continuously
Format: cell-based
Conditions: continuous treatment, about 125 μg·ml of Formula (2)
Method: FIG. 1 illustrates the survival percentage colon DLD-1 carcinoma cells […] after continuous treatment with Formula (2).
FIG. 1 illustrates the results of an in vitro test with cancerous DLD1 colon cells treated continuously with Formula (2). The survival percentage for DLD-1 cells decreases from 100 percent without treatment to less than 1 percent in the presence of continuous treatment of about 125 μg·ml of Formula (2).

## Cc1cccc(NC(C)c2ccccc2C)c1 (stereo not shown) [Formula (2), 3-methyl-N-(1-o-tolylethyl)benxenamine]
  survival percentage for DLD-1 cells: less than 1%
